# Patent publication US8481524B2, “c-MET protein kinase inhibitors” (Vertex Pharmaceuticals Incorporated, priority 2007, dated 2013)
# Tested on: c-Met in Snu5 gastric carcinoma cells
# Assay: Inhibition of c-Met activity in Snu5 gastric carcinoma cells (Snu5-AP1-Luc-Pest luciferase signal)
# Type: cell-based, human
# Conditions: Homo sapiens, SNU-5; Snu5-AP1-Luc-Pest cells, 6 hours, Steady Glo luminescence
# Excerpt: Compounds of the invention were also screened for their ability to inhibit the Luciferase-induced signal in an engineered Snu5 cell line. Snu5 [obtained from American Type Culture Collection (Catalog number CRL-5973)] is a human gastric carcinoma known to overexpress c-Met, which is constitutively active. The cell line was transduced with the retrovirus, pCLPCX, which contains a genetic construct consisting of 6×AP1 promoter response elements and a luciferase gene having a C-terminal PEST sequence (proteolytic signal from mouse ornithine decarboxylase, which reduces the half-life of the luciferase). The constitutively active cMet activates cellular pathways (principally MAP kinase), resulting in AP-1-induced transcription of luciferase-PEST and translation into the final product, the activity of which is quantifiable as a chemiluminescent readout upon the addition of luciferin (Steady-Glo from Promega.). Residual luminescence is strongly correlated to the inhibition of c-Met. A stable cell line was obtained by selecting the new cell line (Snu5-AP1-Luc-Pest) with puromycin. The cells were grown in complete media [Iscove's media (Invitrogen) containing 10% fetal bovine serum (FBS, Hyclone) and penicillin/gentamycin (Invitrogen)]. Compounds of the invention were dissolved in DMSO to make 10 mM initial stock solutions. Serial dilutions in DMSO were then made and transferred to complete medium to make a 10× solution. The Snu5-AP1-Luc-Pest cells were counted and diluted to 200,000-cells/mL solution. The cells (90 μL) were added to each well in a 96-well black with clear bottom plate (Costar). Then 10 μL of the 10× compound solution was added to the cells in triplicate. The plates were incubated in a 37° C./5% CO2 incubator. After 6 hours, 50 μL of the Steady Glo reagent (Promega) was added to each well and placed on a plate shaker for 5 minutes to ensure that the cells were completely lysed. The plate was read on a 1450 Microbeta Liquid Scintillation and Luminescence Counter (Perkin-Elmer). The IC50s were calculated using a 4-parameter fit using the graphing software Prism (GraphPad).
row,IC50,SMILES
1,100 to 1000 nM,Cc1ccc(-n2nnnc2-c2cc(-c3cnn(C4CCNCC4)c3)cnc2N)c(Cl)c1 [Compound 38]
2,100 to 1000 nM,Cc1ccc(-n2nnnc2-c2cc(-c3cc4c(s3)CCNCC4)cnc2N)c(Cl)c1 [Compound 39]
3,> 1000 nM,Cc1ccc(-n2nnnc2-c2cc(-c3cnn(C4CCNCC4)c3)cnc2N)cc1Cl [Compound 40]
4,100 to 1000 nM,Cc1ccc(-n2nnnc2-c2cc(-c3cnn(C4CCNCC4)c3)cnc2N)c(F)c1 [Compound 41]
5,100 to 1000 nM,Cc1ccc(-n2nnnc2-c2cc(-c3cc4c(s3)CCNCC4)cnc2N)c(F)c1 [Compound 42]
6,100 to 1000 nM,Cc1ccc(-n2nnnc2-c2cc(-c3cnn(C4CCNCC4)c3)cnc2N)cc1F [Compound 43]
7,≤ 100 nM,COc1ccc(-n2nnnc2-c2cc(-c3cn(C4CCCNCC4)nc3C)cnc2N)c(F)c1F (centres unmarked) [Compound 44]
8,≤ 100 nM,Cc1ccc(-n2nnnc2-c2cc(-c3cn(C4CCNCC4)nc3C)cnc2N)c(F)c1F [Compound 45]
9,≤ 100 nM,Cc1ccc(-n2nnnc2-c2cc(-c3cn(C4CCCNCC4)nc3C)cnc2N)c(F)c1F (centres unmarked) [Compound 46]
10,100 to 1000 nM,Cc1ccc(-n2nnnc2-c2cc(-c3cn(C4CCNCC4)nc3C(F)(F)F)cnc2N)c(F)c1F [Compound 47]
11,100 to 1000 nM,Cc1ccc(-n2nnnc2-c2cc(-c3cnn(C4C[C@H]5CNC[C@H]5C4)c3)cnc2N)c(F)c1F (some centres unmarked) [Compound 48]
12,100 to 1000 nM,COc1ccc(-n2nnnc2-c2cc(-c3cnn(C4CCNCC4)c3)cnc2N)c(F)c1 [Compound 50]
13,100 to 1000 nM,COc1ccc(-n2nnnc2-c2cc(-c3cc4c(s3)CCNCC4)cnc2N)c(F)c1 [Compound 51]
14,100 to 1000 nM,COc1cc(F)c(-n2nnnc2-c2cc(-c3cc4c(s3)CCNCC4)cnc2N)c(F)c1 [Compound 54]
15,100 to 1000 nM,COCc1ccc(-n2nnnc2-c2cc(-c3cnn(C4CCNCC4)c3)cnc2N)c(F)c1F [Compound 65]
16,≤ 100 nM,COc1ccc(-n2nnnc2-c2cc(-c3cc(C)c(C4CCCNC4)s3)cnc2N)c(F)c1F (centres unmarked) [Compound 66]
17,≤ 100 nM,Cc1cc(-c2cnc(N)c(-c3nnnn3-c3ccc(C)c(F)c3F)c2)sc1C1CCCNC1 (centres unmarked) [Compound 67]
